Test results: patent publication US4229584A, “Ureylenebis(anionic substituted phenylene carbonyl)imino naphthalene sulfonic acids and naphthalene carboxylic acids and their salts” (American Cyanamid Company, priority 1978, dated 1980)
Where a name gives a salt, the structure may show the parent alone. Read-outs that look alike come from different tables or passages of the source.

How the values were obtained:
complement system = conditions: cited from earlier work; for anticomplementary effect: British Journal of Experimental Pathology, 33, 327-339 (1952)
[1] = The New England Journal of Medicine, 286, 808-812 (1972); cited from earlier work
human C1 = biological target: T1, human C1 (Homo sapiens, UniProt P09871); experiment: Test, Code 026 (C1 inhibitor): protection of fluid phase human C2 from activated human C1; type: biochemical; conditions: activity in wells, twofold serial dilution; higher well number indicates higher activity
T1 construct: substrate fluid phase human C2, in presence of C4
Description: (§1) An active inhibitor protects C2 from C1 and C4; (ii) Test, Code 035 (C3-C9 inhibitor)--This test determines the ability of the late components of human complement (C3-C9) to lyse EAC 142 in the presence of appropriate dilutions of the test compound. An active inhibitor protects EAC 142 from lysis by human C3-C9; (iii) Test, Code 036 (C-Shunt inhibitor)--In this test human erythrocytes rendered fragile are lysed in autologous serum via the shunt pathway activated by cobra venom factor in the presence of appropriate dilutions of the test compound. Inhibition of the shunt pathway results in failure of lysis; (iv) Forssman Vasculitis Test--Here, the well known complement dependent lesion, Forssman vasculitis, is produced in guinea pigs by intradermal injection of rabbit anti-Forssman antiserum. The lesion is measured in terms of diameter, edema and hemorrhage and the extent to which a combined index of these is inhibited by prior intraperitoneal injection of the test compound at 200 mg/kg is then reported, unless otherwise stated; (v) Forssman Shock Test--Lethal shock is produced in guinea pigs by an i.v. injection of anti-Forssman antiserum and the harmonic mean death time of treated guinea pigs is compared with that of simultaneous controls; (vi) Complement Level Reduction Test--In this test, the above dosed guinea pigs, or others, are bled for serum and the complement level is determined in undiluted serum by the capillary tube method of U.S. Pat. No. 3,876,376 and compared to undosed control guinea pigs; and (vii) Cap 50 Test--Here, appropriate amounts of the test compound are added to a pool of guinea pig serum in vitro, after which the undiluted serum capillary tube assay referred to above is run. The concentration of compound inhibiting 50% is reported.
(§2) **Activity in wells, a serial dilution assay. Higher well number indicate
(§3) higher activity. The serial dilutions are twofold.

[2] = test system: late components of human complement (C3-C9); experiment: Test, Code 035 (C3-C9 inhibitor): lysis of EAC 142 by late components of human complement; type: cell-based; conditions: activity in wells, twofold serial dilution; higher well number indicates higher activity
Description: as §1, §2, §3

whole complement = experiment: In vivo complement inhibition in guinea pigs (whole complement of serum, capillary tube assay); parameters: species or system guinea pig; conditions: Cavia porcellus, ip
Description: as §1
With reference to Table I, guinea pigs weighing about 300 g were dosed intravenously (i.v.) or intraperitoneally (i.p.) with 200 mg/kg of the test compound dissolved in saline and adjusted to pH 7-8. […] The serum was tested for whole complement using the capillary tube assay. Percent inhibition was calculated by comparison with simultaneous controls. The results appear in Table I together with results of tests, Code 026, 035, 036, Cap 50, percent inhibition and Forssman shock.

shunt pathway = experiment: Test, Code 036 (C-Shunt inhibitor): lysis of human erythrocytes in autologous serum via shunt pathway activated by cobra venom factor; type: cell-based; conditions: activity in wells, twofold serial dilution; higher well number indicates higher activity
Description: as §1, §2, §3

[3] = 0.5 h, intraperitoneal, 200 mg/kg, 30 mins., read-out: In Vivo Activity (Guinea Pig) % Inhibition Intraperitoneal 30 mins.
[4] = 1 h, intraperitoneal, 200 mg/kg, 60 mins., read-out: In Vivo Activity (Guinea Pig) % Inhibition Intraperitoneal 60 mins.
[5] = 2 h, intraperitoneal, 200 mg/kg, 120 mins., read-out: In Vivo Activity (Guinea Pig) % Inhibition Intraperitoneal 120 mins.
[6] = 0.5 h, read-out: In Vivo Activity (Guinea Pig) % Inhibition Intraperitoneal 30 mins.
[7] = 1 h, read-out: In Vivo Activity (Guinea Pig) % Inhibition Intraperitoneal 60 mins.
[8] = 2 h, read-out: In Vivo Activity (Guinea Pig) % Inhibition Intraperitoneal 120 mins.

T1 sequence (P09871 16-688): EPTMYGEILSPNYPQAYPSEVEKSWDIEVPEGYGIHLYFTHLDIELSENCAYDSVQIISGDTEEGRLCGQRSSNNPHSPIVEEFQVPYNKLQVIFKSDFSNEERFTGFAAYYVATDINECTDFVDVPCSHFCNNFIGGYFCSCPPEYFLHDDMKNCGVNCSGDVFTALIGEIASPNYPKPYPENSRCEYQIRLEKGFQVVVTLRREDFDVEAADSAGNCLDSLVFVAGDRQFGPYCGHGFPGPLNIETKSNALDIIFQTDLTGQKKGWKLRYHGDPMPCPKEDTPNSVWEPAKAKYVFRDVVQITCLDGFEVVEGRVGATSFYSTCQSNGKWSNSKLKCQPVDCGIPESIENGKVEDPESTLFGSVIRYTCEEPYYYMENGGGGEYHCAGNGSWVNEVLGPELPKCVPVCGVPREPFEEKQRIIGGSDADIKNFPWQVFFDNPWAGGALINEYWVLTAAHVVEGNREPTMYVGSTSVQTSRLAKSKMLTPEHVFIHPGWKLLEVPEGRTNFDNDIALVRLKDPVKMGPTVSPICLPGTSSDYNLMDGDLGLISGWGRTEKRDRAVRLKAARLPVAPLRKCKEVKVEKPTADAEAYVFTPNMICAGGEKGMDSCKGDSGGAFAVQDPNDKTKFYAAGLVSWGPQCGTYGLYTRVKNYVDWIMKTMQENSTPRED
T1 sequence (P00736 18-705 partner): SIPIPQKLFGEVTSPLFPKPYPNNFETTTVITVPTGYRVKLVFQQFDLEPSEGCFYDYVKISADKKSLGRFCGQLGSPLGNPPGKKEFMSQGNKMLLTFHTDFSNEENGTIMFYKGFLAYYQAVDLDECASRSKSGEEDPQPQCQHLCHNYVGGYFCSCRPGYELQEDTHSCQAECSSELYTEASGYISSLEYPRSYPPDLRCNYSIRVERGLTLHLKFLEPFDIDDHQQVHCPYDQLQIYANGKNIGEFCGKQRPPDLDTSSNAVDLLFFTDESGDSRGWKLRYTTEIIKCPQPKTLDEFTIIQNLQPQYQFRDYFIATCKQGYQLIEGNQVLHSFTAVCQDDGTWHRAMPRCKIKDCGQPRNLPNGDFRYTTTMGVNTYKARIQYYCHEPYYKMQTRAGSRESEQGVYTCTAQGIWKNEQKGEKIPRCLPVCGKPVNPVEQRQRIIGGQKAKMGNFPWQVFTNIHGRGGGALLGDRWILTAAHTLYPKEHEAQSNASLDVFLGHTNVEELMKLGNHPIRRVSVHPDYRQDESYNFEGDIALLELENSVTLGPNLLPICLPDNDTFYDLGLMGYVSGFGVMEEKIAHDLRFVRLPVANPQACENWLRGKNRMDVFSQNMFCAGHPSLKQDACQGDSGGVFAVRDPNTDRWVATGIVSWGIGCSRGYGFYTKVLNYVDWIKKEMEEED
T1 sequence (P02745 23-245 partner): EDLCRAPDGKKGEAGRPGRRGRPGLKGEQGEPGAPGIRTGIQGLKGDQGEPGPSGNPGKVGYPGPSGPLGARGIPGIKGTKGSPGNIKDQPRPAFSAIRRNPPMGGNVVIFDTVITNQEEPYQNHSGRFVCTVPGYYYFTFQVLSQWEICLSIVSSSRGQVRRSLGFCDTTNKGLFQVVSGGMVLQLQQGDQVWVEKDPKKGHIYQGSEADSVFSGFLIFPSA
T1 sequence (P02746 28-253 partner): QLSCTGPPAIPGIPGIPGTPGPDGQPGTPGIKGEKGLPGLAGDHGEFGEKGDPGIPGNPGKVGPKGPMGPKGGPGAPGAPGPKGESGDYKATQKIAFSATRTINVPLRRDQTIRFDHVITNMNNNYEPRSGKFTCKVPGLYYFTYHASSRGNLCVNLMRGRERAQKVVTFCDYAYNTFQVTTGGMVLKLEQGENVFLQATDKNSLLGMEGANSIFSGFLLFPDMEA
T1 sequence (P02747 29-245 partner): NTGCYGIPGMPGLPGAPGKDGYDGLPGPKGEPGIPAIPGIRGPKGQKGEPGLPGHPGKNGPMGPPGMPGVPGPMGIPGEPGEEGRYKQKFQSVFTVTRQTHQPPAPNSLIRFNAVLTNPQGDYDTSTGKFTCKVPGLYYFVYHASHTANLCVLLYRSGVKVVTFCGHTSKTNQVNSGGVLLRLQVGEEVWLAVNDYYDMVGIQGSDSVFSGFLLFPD

## Nc1ccc2cc(S(=O)(=O)O)cc(O)c2c1N=Nc1ccc(NC(=O)Nc2ccc(N=Nc3c(N)ccc4cc(S(=O)(=O)O)cc(O)c34)c(S(=O)(=O)O)c2)cc1S(=O)(=O)O [chlorazol fast pink, 3,3'-ureylenebis-[6-(2-amino-8-hydroxy-6-sulfo-1-naphthylazo)]benzenesulfonic acid, tetrasodium salt]
Complement system
  anticomplementary effect: anticomplementary effect

## NCCCCCC(=O)O [epsilon-aminocaproic acid]
[1]
  treatment of hereditary angioneurotic edema: used with success

## heparin
Complement system
  anticomplementary effect: anticomplementary effect

## Cc1ccc(C(=O)Nc2ccc(S(=O)(=O)O)c3cc(S(=O)(=O)O)cc(S(=O)(=O)O)c23)cc1NC(=O)c1cccc(NC(=O)Nc2cccc(C(=O)Nc3cc(C(=O)Nc4ccc(S(=O)(=O)O)c5cc(S(=O)(=O)O)cc(S(=O)(=O)O)c45)ccc3C)c2)c1 [Suramin]
Complement system; Clin. Exp. Immunol., 10, 127-138 (1972)
  inhibition of the complement system: competitive inhibitor of the complement system

## O=C(Nc1cc(C(=O)O)cc(C(=O)Nc2ccc(S(=O)(=O)O)c3cc(S(=O)(=O)O)cc(S(=O)(=O)O)c23)c1)Nc1cc(C(=O)O)cc(C(=O)Nc2ccc(S(=O)(=O)O)c3cc(S(=O)(=O)O)cc(S(=O)(=O)O)c23)c1 [5,5'-Ureylenebis[N-(4,6,8-trisulfo-1-naphthyl)isophthalamic acid]octasodiumsalt]
Human C1
  C1 026* Wells: +5 Wells
[2]
  C-Late 035* Wells: +1 Wells
Whole complement; [3]
  change in vivo at 200 mg/kg: -40%
Whole complement; [4]
  change in vivo at 200 mg/kg: -49%
Whole complement; [5]
  change in vivo at 200 mg/kg: -71%
Shunt pathway
  Shunt Inhibition 036* Wells: +2 Wells

## NC[C@H]1CC[C@H](C(=O)O)CC1 [tranexamic acid]
[1]
  treatment of hereditary angioneurotic edema: used with success

## O=C(Nc1ccc(C(=O)Nc2ccc(S(=O)(=O)[O-])c3cccc(S(=O)(=O)O)c23)c(S(=O)(=O)[O-])c1)Nc1ccc(C(=O)Nc2ccc(S(=O)(=O)O)c3cccc(S(=O)(=O)O)c23)c(S(=O)(=O)[O-])c1.[Na+].[Na+].[Na+] [4,4'-{Ureylenebis[(2-sulfo-4,1-phenylenecarbonyl)imino]}-di-1,5-naphthalenedisulfonic acid trisodium salt]
Human C1
  C1 026* Wells: +7 Wells
[2]
  C-Late 035* Wells: N
Whole complement; [6]
  change in vivo at 200 mg/kg: -10%
Whole complement; [7]
  change in vivo at 200 mg/kg: 6%
Whole complement; [8]
  change in vivo at 200 mg/kg: -6%
Shunt pathway
  Shunt Inhibition 036* Wells: +1 Wells

## O=C(Nc1ccc(C(=O)Nc2cc(S(=O)(=O)O)cc3cccc(S(=O)(=O)O)c23)c(S(=O)(=O)O)c1)Nc1ccc(C(=O)Nc2cc(S(=O)(=O)O)cc3cccc(S(=O)(=O)O)c23)c(S(=O)(=O)O)c1 [8,8'-[Ureylenebis(2-sulfo-4,1-phenylenecarbonyl)imino]di-1,6-naphthalenedisulfonic acid hexasodium salt]
Human C1
  C1 026* Wells: +5 Wells
[2]
  C-Late 035* Wells: +1 Wells
Whole complement; [3]
  change in vivo at 200 mg/kg: -10%
Whole complement; [4]
  change in vivo at 200 mg/kg: -18%
Whole complement; [5]
  change in vivo at 200 mg/kg: -31%
Shunt pathway
  Shunt Inhibition 036* Wells: +1 Wells

## O=C(Nc1ccc(C(=O)Nc2ccc(S(=O)(=O)[O-])c3ccc(S(=O)(=O)[O-])cc23)c(S(=O)(=O)[O-])c1)Nc1ccc(C(=O)Nc2ccc(S(=O)(=O)[O-])c3ccc(S(=O)(=O)[O-])cc23)c(S(=O)(=O)[O-])c1.[Na+].[Na+].[Na+].[Na+].[Na+].[Na+] [4,4'-{Ureylenebis[(2-sulfo-4,1-phenylenecarbonyl)imino]}-di-1,6-naphthalenedisulfonic acid hexasodium salt]
Human C1
  C1 026* Wells: +5 Wells
[2]
  C-Late 035* Wells: N
Whole complement; [6]
  change in vivo at 200 mg/kg: -3%
Whole complement; [7]
  change in vivo at 200 mg/kg: -4%
Whole complement; [8]
  change in vivo at 200 mg/kg: 6%
Shunt pathway
  Shunt Inhibition 036* Wells: N
